Experiments:
[1] = Antiangiogenic activity in endothelial cells assessed as inhibition of tube formation incubated for 18 hrs by matrigel-based inverted microscopic analysis; type: functional; conditions: Endothelial cell
HCT-116 = assay: Cytotoxicity against human HCT-116 cells assessed as cell growth inhibition after 48 hrs by MTT assay; type: functional, cell-based; conditions: HCT-116, 48 h
A549 = assay: Cytotoxicity against human A549 cells assessed as cell growth inhibition after 48 hrs by MTT assay; type: functional, cell-based; conditions: A549, 48 h
PC-3 = assay: Cytotoxicity against human PC-3 cells assessed as cell growth inhibition after 48 hrs by MTT assay; type: functional, cell-based; conditions: PC-3, 48 h
RT-112 = assay: Cytotoxicity against human RT-112 cells assessed as cell growth inhibition after 48 hrs by MTT assay; type: functional, cell-based; conditions: RT-112, 48 h

Molecule `CC(=O)OC[C@@]12[C@H](O)[C@H](O)[C@]3(C)C(=CC[C@@H]4[C@@]5(C)CC[C@H](O[C@@H]6OC[C@H](O[C@@H]7O[C@H](CO)[C@@H](O)[C@H](O)[C@H]7O[C@@H]7OC[C@@H](O)[C@H](O)[C@H]7O)[C@H](O)[C@H]6O[C@@H]6O[C@H](CO)[C@@H](O)[C@H](O)[C@H]6O)C(C)(C)[C@@H]5CC[C@]43C)[C@@H]1CC(C)(C)[C@@H](OC(C)=O)[C@@H]2O` has an IC50 [1] of 15.9 µM, an IC50 (HCT-116) of over 10 µM and an IC50 (A549) of over 10 µM. For the same molecule, the IC50 (PC-3) was over 10 µM and the IC50 (RT-112) was over 10 µM.

For `CC(=O)OC[C@@]12[C@H](O)[C@H](O)[C@]3(C)C(=CC[C@@H]4[C@@]5(C)CC[C@H](O[C@@H]6OC[C@H](O[C@@H]7O[C@H](CO)[C@@H](O)[C@H](O)[C@H]7O[C@@H]7OC[C@@H](O)[C@H](O)[C@H]7O)[C@H](O)[C@H]6O[C@@H]6O[C@H](CO)[C@@H](O)[C@H](O)[C@H]6O)C(C)(C)[C@@H]5CC[C@]43C)[C@@H]1CC(C)(C)C[C@@H]2O`, the IC50 [1] was 35.8 µM, the IC50 (HCT-116) was 9.8 µM and the IC50 (A549) was over 10 µM. The IC50 (PC-3) was over 10 µM and the IC50 (RT-112) was 7.8 µM.

Work on `CC1(C)C[C@H](O)[C@]2(CO)[C@H](O)[C@H](O)[C@]3(C)C(=CC[C@@H]4[C@@]5(C)CC[C@H](O[C@@H]6OC[C@H](O[C@@H]7O[C@H](CO)[C@@H](O)[C@H](O)[C@H]7O[C@@H]7OC[C@@H](O)[C@H](O)[C@H]7O)[C@H](O)[C@H]6O[C@@H]6O[C@H](CO)[C@@H](O)[C@H](O)[C@H]6O)C(C)(C)[C@@H]5CC[C@]43C)[C@@H]2C1` yielded an IC50 [1] of 45.9 µM, an IC50 (HCT-116) of over 10 µM and an IC50 (A549) of over 10 µM. For the same molecule, the IC50 (PC-3) was over 10 µM and the IC50 (RT-112) was over 10 µM.

`CC(=O)O[C@H]1CC(C)(C)C[C@H]2C3=CC[C@@H]4[C@@]5(C)CC[C@H](O[C@@H]6OC[C@H](O[C@@H]7O[C@H](CO)[C@@H](O)[C@H](O)[C@H]7O[C@@H]7OC[C@@H](O)[C@H](O)[C@H]7O)[C@H](O)[C@H]6O[C@@H]6O[C@H](CO)[C@@H](O)[C@H](O)[C@H]6O)C(C)(C)[C@@H]5CC[C@@]4(C)[C@]3(C)[C@@H](O)[C@@H](O)[C@@]12CO` gave an IC50 [1] of 1.7 µM, an IC50 (HCT-116) of 7.7 µM and an IC50 (A549) of 6.1 µM. For the same molecule, the IC50 (PC-3) was 9.4 µM and the IC50 (RT-112) was 6.4 µM.

Work on `CC(=O)O[C@@H]1[C@H](O)[C@]2(C)C(=CC[C@@H]3[C@@]4(C)CC[C@H](O[C@@H]5OC[C@H](O[C@@H]6O[C@H](CO)[C@@H](O)[C@H](O)[C@H]6O[C@@H]6OC[C@@H](O)[C@H](O)[C@H]6O)[C@H](O)[C@H]5O[C@@H]5O[C@H](CO)[C@@H](O)[C@H](O)[C@H]5O)C(C)(C)[C@@H]4CC[C@]32C)[C@@H]2CC(C)(C)C[C@H](O)[C@]12CO` yielded an IC50 [1] of 5.1 µM, an IC50 (HCT-116) of over 10 µM and an IC50 (A549) of over 10 µM. For the same molecule, the IC50 (PC-3) was over 10 µM and the IC50 (RT-112) was over 10 µM.

Molecule `CC(=O)OC[C@@]12[C@H](O)C[C@]3(C)C(=CC[C@@H]4[C@@]5(C)CC[C@H](O[C@@H]6OC[C@H](O[C@@H]7O[C@H](CO)[C@@H](O)[C@H](O)[C@H]7O[C@@H]7OC[C@@H](O)[C@H](O)[C@H]7O)[C@H](O)[C@H]6O[C@@H]6O[C@H](CO)[C@@H](O)[C@H](O)[C@H]6O)C(C)(C)[C@@H]5CC[C@]43C)[C@@H]1CC(C)(C)[C@@H](OC(C)=O)[C@@H]2O` has an IC50 [1] of 5.2 µM, an IC50 (HCT-116) of 6.8 µM and an IC50 (A549) of 9 µM. It also gave an IC50 (PC-3) of 9.9 µM and an IC50 (RT-112) of over 10 µM.

`CC(=O)O[C@@H]1C[C@]2(C)C(=CC[C@@H]3[C@@]4(C)CC[C@H](O[C@@H]5OC[C@H](O[C@@H]6O[C@H](CO)[C@@H](O)[C@H](O)[C@H]6O[C@@H]6OC[C@@H](O)[C@H](O)[C@H]6O)[C@H](O)[C@H]5O[C@@H]5O[C@H](CO)[C@@H](O)[C@H](O)[C@H]5O)C(C)(C)[C@@H]4CC[C@]32C)[C@@H]2CC(C)(C)C[C@H](O)[C@]12CO` gave an IC50 [1] of 23.1 µM, an IC50 (HCT-116) of over 10 µM and an IC50 (A549) of over 10 µM. It also gave an IC50 (PC-3) of over 10 µM and an IC50 (RT-112) of over 10 µM.

`CC(=O)O[C@H]1[C@H](OC(C)=O)[C@]2(CO)[C@H](O)[C@H](O)[C@]3(C)C(=CC[C@@H]4[C@@]5(C)CC[C@H](O[C@@H]6OC[C@H](O[C@@H]7O[C@H](CO)[C@@H](O)[C@H](O)[C@H]7O[C@@H]7OC[C@@H](O)[C@H](O)[C@H]7O)[C@H](O)[C@H]6O[C@@H]6O[C@H](CO)[C@@H](O)[C@H](O)[C@H]6O)C(C)(C)[C@@H]5CC[C@]43C)[C@@H]2CC1(C)C` showed an IC50 [1] of 3.2 µM, an IC50 (HCT-116) of over 10 µM and an IC50 (A549) of 8.7 µM. For the same molecule, the IC50 (PC-3) was over 10 µM and the IC50 (RT-112) was 7.3 µM.

With `COc1ccc(/C=C\c2cc(OC)c(OC)c(OC)c2)cc1O` [COMBRETASTATIN A4] the IC50 [1] was 0.37 µM.

`CC(=O)O[C@H]1C(=O)[C@@]2(C)[C@H]([C@H](OC(=O)c3ccccc3)[C@]3(O)C[C@H](OC(=O)[C@H](O)[C@@H](NC(=O)c4ccccc4)c4ccccc4)C(C)=C1C3(C)C)[C@]1(OC(C)=O)CO[C@@H]1C[C@@H]2O` [PACLITAXEL] showed an IC50 (A549) of 0.7 µM, an IC50 (PC-3) of 0.04 µM and an IC50 (RT-112) of 0.07 µM.

From ChEMBL document CHEMBL4811223, “Arenarosides A-G, Polyhydroxylated Oleanane-Type Saponins from Polycarpaea arenaria and their Cytotoxic and Antiangiogenic Activities” (J Nat Prod, 2021)
